PubChem BioAssay (NCI)
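96-well plates; 48 h exposure; 5 concentrations. Endpoints by linear interpolation between flanking doses. Not reached: highest tested concentration assigned. GI50 marks 50% less growth. TGI: concentration producing complete growth inhibition.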

Assays:
Assay in all cases: NCI tumour cell line growth inhibition, 48 h
[1] = system: CAKI-1 renal
[2] = system: NCI/ADR-RES ovarian
[3] = system: SF-268 CNS
[4] = system: OVCAR-3 ovarian
[5] = system: SW-620 colon
[6] = system: OVCAR-8 ovarian
[7] = system: SK-MEL-2 melanoma
[8] = system: IGROV1 ovarian
[9] = system: NCI-H460 lung
[10] = system: HCT-15 colon
[11] = system: MDA-MB-231 breast
[12] = system: UACC-62 melanoma
[13] = system: A498 renal
[14] = system: EKVX NSCLC
[15] = system: MDA-MB-435
[16] = system: NCI-H23 lung
[17] = system: UACC-257 melanoma
[18] = system: SK-OV-3 ovarian
[19] = system: U251 CNS
[20] = system: K-562 leukemia
[21] = system: SF-539 CNS
[22] = system: HOP-62 NSCLC
[23] = system: HT29 colon
[24] = system: SK-MEL-5 melanoma
[25] = system: UO-31 renal
[26] = system: PC-3 prostate
[27] = system: MALME-3M melanoma
[28] = system: HOP-92 NSCLC
[29] = system: NCI-H522 lung
[30] = system: OVCAR-4 ovarian
[31] = system: A549 NSCLC
[32] = system: MOLT-4 leukemia
[33] = system: OVCAR-5 ovarian
[34] = system: SNB-19 CNS
[35] = system: CCRF-CEM leukemia
[36] = system: T-47D breast
[37] = system: TK-10 renal
[38] = system: SN12C renal
[39] = system: 786-0 renal
[40] = system: ACHN renal
[41] = system: SF-295 CNS
[42] = system: MCF7 breast
[43] = system: DU-145 prostate
[44] = system: LOX IMVI melanoma
[45] = system: BT-549 breast
[46] = system: RPMI-8226 leukemia
[47] = system: NCI-H226 lung
[48] = system: KM12 colon
[49] = system: COLO 205 colon
[50] = system: M14 melanoma
[51] = system: HCT-116 colon
[52] = system: SNB-75 CNS
[53] = system: HS 578T breast
[54] = system: SK-MEL-28 melanoma
[55] = system: RXF 393 renal
[56] = system: HCC-2998 colon
[57] = system: HL-60(TB) leukemia

CCOc1c(OC)cc(C2c3cc4c(c(OCC)c3CC3COC(=O)C32)OCO4)cc1OC (stereo not drawn)
TGI [1]: 55.7 µM
TGI [2]: 7.17 µM
TGI [3]: 92.6 µM
TGI [4]: 5.14 µM
TGI [5]: > 100 µM
TGI [6]: 6.38 µM
TGI [7]: > 100 µM
TGI [8]: 80.5 µM
TGI [9]: > 100 µM
TGI [10]: 2.68 µM
TGI [11]: 6.47 µM
TGI [12]: 2.27 µM
TGI [13]: 67.4 µM
TGI [14]: > 100 µM
TGI [15]: 0.898 µM
TGI [16]: 5.9 µM
TGI [17]: 49.1 µM
TGI [18]: > 100 µM
TGI [19]: 11.6 µM
TGI [20]: 19.4 µM
TGI [21]: 4.91 µM
TGI [22]: 17.8 µM
TGI [23]: 10.4 µM
TGI [24]: 14.5 µM
TGI [25]: 27.3 µM
TGI [26]: > 100 µM
TGI [27]: 79.8 µM
TGI [28]: > 100 µM
TGI [29]: 16.8 µM
TGI [30]: > 100 µM
TGI [31]: 14.2 µM
TGI [32]: 7.69 µM
TGI [33]: 15.9 µM
TGI [34]: > 100 µM
TGI [35]: 30.1 µM
TGI [36]: > 100 µM
TGI [37]: 69.6 µM
TGI [38]: 6.9 µM
TGI [39]: 22.2 µM
TGI [40]: 20.9 µM
TGI [41]: 3.97 µM
TGI [42]: > 100 µM
TGI [43]: 12.1 µM
TGI [44]: 14 µM
TGI [45]: 64 µM
TGI [46]: 59.3 µM
TGI [47]: 46.9 µM
TGI [48]: 11.3 µM
TGI [49]: 6.98 µM
TGI [50]: 43.3 µM
TGI [51]: 11.5 µM
TGI [52]: > 100 µM
TGI [53]: 21.9 µM
TGI [54]: > 100 µM
TGI [55]: > 100 µM

CCCCC(CCCC)=NNC(=S)SC
TGI [56]: 54.4 µM
TGI [2]: > 100 µM
TGI [3]: > 100 µM
TGI [57]: 50.2 µM
TGI [5]: > 100 µM
TGI [6]: 44.4 µM
TGI [7]: > 100 µM
TGI [9]: > 100 µM
TGI [10]: > 100 µM
TGI [11]: > 100 µM
TGI [12]: 57.8 µM
TGI [13]: > 100 µM
TGI [14]: > 100 µM
TGI [15]: 47 µM
TGI [16]: > 100 µM
TGI [17]: 75.7 µM
TGI [18]: > 100 µM
TGI [19]: > 100 µM
TGI [20]: > 100 µM
TGI [21]: 67 µM
TGI [22]: > 100 µM
TGI [23]: > 100 µM
TGI [24]: 39.3 µM
TGI [25]: > 100 µM
TGI [26]: > 100 µM
TGI [27]: 37.4 µM
TGI [28]: > 100 µM
TGI [29]: 48.8 µM
TGI [30]: 66.3 µM
TGI [31]: > 100 µM
TGI [32]: 43.6 µM
TGI [33]: > 100 µM
TGI [34]: > 100 µM
TGI [36]: 74.1 µM
TGI [37]: 69.1 µM
TGI [38]: > 100 µM
TGI [39]: > 100 µM
TGI [40]: > 100 µM
TGI [42]: > 100 µM
TGI [43]: > 100 µM
TGI [44]: > 100 µM
TGI [45]: > 100 µM
TGI [47]: 57.6 µM
TGI [49]: > 100 µM
TGI [50]: 44.3 µM
TGI [51]: 38.6 µM
TGI [52]: > 100 µM
TGI [53]: > 100 µM
TGI [54]: > 100 µM
TGI [55]: > 100 µM

Fc1cc(-c2csc3n[nH]c(=S)n23)c(Cl)cc1Cl
GI50 [1]: 33 µM
TGI [1]: > 100 µM
GI50 [56]: 25.8 µM
TGI [56]: 70.1 µM
GI50 [2]: 37.6 µM
TGI [2]: > 100 µM
GI50 [3]: 35.5 µM
TGI [3]: > 100 µM
GI50 [4]: 34.9 µM
TGI [4]: > 100 µM
GI50 [5]: > 100 µM
TGI [5]: > 100 µM
GI50 [6]: 44.5 µM
TGI [6]: > 100 µM
GI50 [7]: 26.7 µM
TGI [7]: 76.5 µM
GI50 [8]: 58.9 µM
TGI [8]: > 100 µM
GI50 [9]: 35.4 µM
TGI [9]: > 100 µM
GI50 [10]: 32.8 µM
TGI [10]: > 100 µM
GI50 [11]: 14.5 µM
TGI [11]: 40.1 µM
GI50 [12]: 18.6 µM
TGI [12]: 48.4 µM
GI50 [13]: 19 µM
TGI [13]: 47.1 µM
GI50 [14]: 21.1 µM
TGI [14]: 66 µM
GI50 [15]: 55.8 µM
TGI [15]: > 100 µM
GI50 [16]: 23.5 µM
TGI [16]: 78.8 µM
GI50 [17]: 93.5 µM
TGI [17]: > 100 µM
GI50 [18]: 35.6 µM
TGI [18]: > 100 µM
GI50 [19]: 17.1 µM
TGI [19]: 35.4 µM
GI50 [20]: 32.2 µM
TGI [20]: > 100 µM
GI50 [21]: 24.7 µM
TGI [21]: 41 µM
GI50 [22]: 20.1 µM
TGI [22]: 38.8 µM
GI50 [23]: 65.8 µM
TGI [23]: > 100 µM
GI50 [24]: 55.7 µM
TGI [24]: > 100 µM
GI50 [25]: 43 µM
TGI [25]: > 100 µM
GI50 [26]: 31.4 µM
TGI [26]: > 100 µM
GI50 [27]: 41.1 µM
TGI [27]: > 100 µM
GI50 [28]: 21.1 µM
TGI [28]: 55.3 µM
GI50 [29]: 39.2 µM
TGI [29]: > 100 µM
GI50 [30]: 27.7 µM
TGI [30]: 73.9 µM
GI50 [31]: 42 µM
TGI [31]: > 100 µM
GI50 [33]: 41 µM
TGI [33]: > 100 µM
GI50 [34]: 47 µM
TGI [34]: > 100 µM
GI50 [36]: 53.3 µM
TGI [36]: > 100 µM
GI50 [37]: 38.5 µM
TGI [37]: > 100 µM
GI50 [38]: 22.4 µM
TGI [38]: 58.8 µM
GI50 [39]: 22.2 µM
TGI [39]: 42.7 µM
GI50 [40]: 23.7 µM
TGI [40]: 57.5 µM
GI50 [41]: 17.8 µM
TGI [41]: 50.5 µM
GI50 [42]: 48.4 µM
TGI [42]: > 100 µM
GI50 [43]: 32.5 µM
TGI [43]: > 100 µM
GI50 [44]: 37.2 µM
TGI [44]: > 100 µM
GI50 [45]: 36.4 µM
TGI [45]: > 100 µM
GI50 [46]: 23.5 µM
TGI [46]: > 100 µM
GI50 [47]: 19.6 µM
TGI [47]: 59.7 µM
GI50 [48]: 32.6 µM
TGI [48]: > 100 µM
GI50 [49]: 41.7 µM
TGI [49]: > 100 µM
GI50 [50]: 39.9 µM
TGI [50]: > 100 µM
GI50 [51]: 27.3 µM
TGI [51]: 88.8 µM
GI50 [52]: 22.1 µM
TGI [52]: 50 µM
GI50 [53]: 28.8 µM
TGI [53]: 92.7 µM
GI50 [54]: 48.2 µM
TGI [54]: > 100 µM
GI50 [55]: 21.6 µM
TGI [55]: 63 µM
